Experimental findings from patent US20260327255A1, “LIGAND-DIRECTED COVALENT MODIFICATION OF AMINO ACID SIDE CHAINS USING CYCLIC IMINE MANNICH ELECTROPHILES” (Purdue Research Foundation, priority 2022, published 2026) are described below.

Entries after “also recorded” stand apart in the source; their conditions may differ.

The nature of data set [1]: Stability of cyclic imines in aqueous media (LC/MS). Format: physicochemical. Particulars: 96-hours incubation in PBS, 0.1M HCl, 0.1M NaOH. As to the method:
To validate the stability of cyclic imines as covalent warheads, imines 1-4 were evaluated by LC/MS after 96-hours incubation in PBS, 0.1M HCl, and 0.1M NaOH (Table 1).

The nature of data set [2]: Reaction of cyclic imines with N-acetyl-L-tyrosine methylamide (HPLC/LC-MS). Particulars: for reactivity to tyrosine: in words, Ac-Tyr-NHMe; for reactivity to tyrosine / reaction half-life (t1/2): PBS pH 7, 37° C.; for reaction half-life (t1/2): 5 mM imine, 100 mM Ac-Tyr-NHMe; for second-order rate constant: pseudo-first order conditions. The procedure: The reaction was monitored using liquid chromatography/mass spectrometry (LC/MS).
(§1) Reactions were conducted under pseudo first order conditions with an excess of one reactant. The reduction in the concentration of the limiting reactant A was measured at various time points by HPLC analysis. Rates of imine 1 with N-Ac-Tyr-NMe, indole-3-butyric acid, and 1H-pyrrole-1-propionic acid and of imine 2 with N-Ac-Tyr-NMe were measured.
(§2) Reaction of imine 1 (5 mM) with (A) N-Ac-Tyr-NHMe (100 mM) or (B) indole-3-butyrate (100 mM) at indicated time points.
(§3) Reaction of (A) imine 1 (5 mM) with N-Ac-Tyr-NHMe (100 mM) at 37° C. or (B) at room temperature. (C) imine 2 (5 mM) with N-Ac-Tyr-NHMe (100 mM) at 37° C. (D) imine 1 (5 mM) with indole-3-butyrate (100 mM) (E) imine 1 (10 mM) with 1 mM 1H-pyrrole-1-propionate (F) iminium 6 (5 mM) with N-Ac-Tyr-NHMe (100 mM) at 37° C. at pH 7 (G) iminium 6 (5 mM) with N-Ac-Tyr-NHMe (100 mM) at 37° C. at pH 3 at indicated time points.
Several cyclic imines (5 mM) were incubated with a simple tyrosine analog N-acetyl-L-tyrosine methylamide (Ac-Tyr-NHMe) in PBS pH 7 at 37° C. (FIGS. 2-3). The reactivity was quantitated by UV integration on HPLC with liquid chromatography/mass spectrometry (LC/MS) confirmation of reaction product identity (FIG. 4). Under these pseudo-first order reaction conditions, reaction half-lives and second-order rate constants were determined.

The nature of data set [3]: Hydrolysis of aromatic ester imine in water / PBS. Type of data set: physicochemical.
The nature of data set [4]: Amino acid mimetic reactivity, LC/MS: indole (tryptophan mimic). Particulars: 100 mM, PBS pH 7, 37° C., 24 h. As to the method: (§4) Cyclic imine 1 was incubated with 100 mM compounds in PBS (pH 7) at 37° C. for 24 hours and then analyzed by LC/MS. (A) Compounds include β-mercaptoethanol, imidazole, isopropanol, n-butylamine, propionic acid, 3-methyl indole, and N-ethyl pyrrole (pyrrole-lysine). UV LC/MS traces for (B) β-mercaptoethanol, (C) 3-methyl indole, and (D) N-ethyl pyrrole. LR-ESI-MS: imine-thiol product m/z calc. for [M+H]^+ 231.1; found: 231.2. Imine-indole product m/z calc. for [M+H]^+: 284.2; found: 284.2. Imine-pyrrole product m/z calc. for |M+H|^+: 248.2; found: 248.2.
(§5) To assess the selectivity to other amino acids, we tested compounds mimicking amino acid side chain functional groups, including β-mercaptoethanol (cysteine), imidazole (histidine), isopropanol (serine/threonine), n-butylamine (lysine), propionic acid (aspartic acid/glutamic acid), 3-methyl indole (tryptophan), and N-ethyl pyrrole (pyrrole-lysine). […] Conjugation to thiols was expected based on previous reports (Minakawa et al. J. Org. Chem. 2008, 73(21), 8669-8672; Cavaca et al. Mol. 2022, 27(5), 1673).

Data set [5] in a line: Reaction of imine 1 with indole-3-butyrate (tryptophan mimic). As to the method: as §1, §2, §3
The nature of data set [6]: Reaction of imine 1 with 1H-pyrrole-1-propionate (pyrrole-Lys mimic). The procedure: as §1, §3
We also tested 1 with N-ethyl pyrrole as a mimic of pyrrolated lysine, a lesser-known post-translational modification (Miyashita et al. Sci. Rep. 2014, 4, 5343; Chikazawa et al. J. Biol. Chem. 2020, 295(22), 7697-7709). […] Previous work with N-pyrrolyl alanine derivatives has shown fast and selective Pictet-Spengler reactions with aldehyde-containing biomolecules (Pomplun et al. Angew. Chemie Int. Ed. 2019, 58(11), 3542-3547).^50 Under conditions of 10 mM cyclic imine 1 with 1 mM 1H-pyrrole-1-propionate (as a soluble pyrrole-Lys mimic), we determined a second order rate constant of 5.9×10^−2 M^−1 s^−1 (FIGS. 3 and 5).

Data set [7] can be described thus: Amino acid mimetic reactivity, LC/MS: thiol (cysteine mimic). The settings on record: 100 mM, PBS pH 7, 37° C., 24 h. As to the method:
as §4, §5

For another data set, the system named is angiotensin II. Kind of data set: Labeling of angiotensin II with imine 1 (LC/MS). Particulars: 50 mM imine 1, 10 mM angiotensin II, 16 hours. The procedure:
UV trace of reaction mixture of compound 1 (cyclic imine 1) with angiotensin II. […] (Mono cyclic imine-angiotensin II conjugate peak at 2 min): calc. [M+H]^+: 1199.2, found [M+H]^+: 1199.3, [M+2H]^2+: 600.3, [M+3H]^3+: 400.6. (Di-cyclic imine-angiotensin II conjugate peak at 2.1 min): calc. [M+H]^+: 1351.2, found [M+H]^+: 1351.8, [M+2H]^2+: 676.4, [M+3H]^3+: 451.0. (Unmodified angiotensin II (8-mer) peak at 2.2 min): m/z calc. [M+H]^+: 1047.2, found [M+H]^+: 1047.2, [M+2H]^2+: 524., [M+3H]^3+: 350.
(§6) To confirm reactivity and selectivity with a peptide context, imine 1 (50 mM) was incubated with the tyrosine-containing 8-mer peptide angiotensin II ([…]) (10 mM) (FIG. 10). The combined yield of mono-labeled and di-labeled angiotensin II was ~45% as quantified by LC/MS. Cyclic imine 1 (50 mM) was also incubated with a small protein (recombinant CBX8 chromodomain (ChD), which contains multiple tyrosines and tryptophans; 10 μM in PBS buffer (pH=7; 0.02% Tween 20)) at room temperature overnight. With overnight incubation, two to three additions of the imine were observed by mass spectrometry.

Data set [8] is described as follows: Effect of thiols on tyrosine labeling with imine 1. The settings on record: 5 mM imine, 100 mM Tyr, 5 mM cysteine, vs control. As to the method: Cyclic imine 1 (5 mM) was incubated with 100 mM acetyl tyrosine methyl amide and 5 mM […] (in the presence of 5 mM TCEP). Reaction yield was quantified based on UV integrations of Mannich product at 4 h, 9 h, 17 h, 24 h, and 32 h. Imine consumption rate was quantified based on the UV integration of Mannich product at 4 h, 9 h, 17 h, 24 h, and 32 h.
Thiol addition to the imine is reversible, yet this reaction may limit the desired reactivity of imines to tyrosines in cellular contexts where glutathione concentrations can be 1-10 mM (Meister et al. J. Biol. Chem. 1988, 263(33), 17205-17208; Forman et al. Mol. Aspects Med. 2009, 30(1-2), 1). To evaluate this reversibility, the pre-formed thioaminal product of 1 with N-acetyl-cysteine methyl amide was treated with either glutathione (1 M) or Ac-Tyr-NHMe (100 mM). […] To evaluate potential effects of cellular thiols on tyrosine labeling rate, the cyclic imine-Tyr reaction (at 5 mM and 100 mM, respectively) was evaluated over time in the presence of cysteine (5 mM) (FIG. 9).

Data set [9] has as its target T1, recombinant CBX8 chromodomain (ChD) (Homo sapiens, UniProt Q9HC52).
T1 construct: expected mass of CBX8 ChD 8792 Da
T1 sequence (Q9HC52 8-69 limits assumed): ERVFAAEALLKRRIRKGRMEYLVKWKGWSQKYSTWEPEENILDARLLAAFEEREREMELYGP
As to the kind of experiment: Labeling of CBX8 chromodomain with imine 1 (mass spectrometry). Type of data set: binding. The settings on record: 50 mM imine, 10 μM CBX8 ChD, PBS pH 7, 0.02% Tween 20, room temperature overnight. The procedure: as §6

A short description of data set [10]: Amino acid mimetic reactivity, LC/MS: pyrrole (pyrrole-lysine mimic). The settings on record: 100 mM, PBS pH 7, 37° C., 24 h. The procedure: as §4, §5
A further data set is described as follows: Aqueous solubility. Format: physicochemical.

Regarding `O=c1cnc2ccccc2o1` [Compound 3], the “stability (in words)” value in data set [1] is recorded as “hydrolyzed under basic conditions; also recorded: unstable in PBS”. Moreover, the reactivity to tyrosine entry in data set [2] is on record as “did increase the rate of Mannich addition; also recorded: low intrinsic reactivity”. Moreover, the degraded at 1 h in data set [3] (PBS, pH 7, within an hour) turned out to be 70%. Moreover, the stability in water result in [3] (water) is reported as “stable in water”.

As for `C#CCn1c(=O)cnc2ccccc21` [Compound 5], the reactivity to tyrosine result in data set [2] is reported as “unreactive”.

Consider `O=C1C=NC2CCCCC2O1` (stereo not shown) [Compound 2], for which, in data set [1], the “stability (in words)” value is given as “hydrolyzed under basic conditions”. Further, in [2], the “reaction half-life (t1/2)” value stood at 0.667 h. In data set [2] (37° C.), this molecule displayed a second-order rate constant of 0.0029 M⁻¹ s⁻¹. Moreover, the “increase in rate constant relative to 1” value in data set [2] (relative to imine 1, Ac-Tyr-NHMe) was ~ 10 fold.

Regarding `Oc1cnc2ccccc2n1` [Compound 4], the “stability (in words)” value in data set [1] was “stable under all conditions”. In addition, the reactivity to tyrosine result in data set [2] was “unreactive”.

As for `CC1=NCCC1` [Compound 10], the reactivity to tyrosine entry in [2] was “no”.

`O=C1C=NC2CCCCC2N1` (stereo not shown) [Compound 1]: the “stability (in words)” value in [1] was “stable under all conditions”. The “conjugate formation with 3-methyl indole” value in [4] is on record as “Stable conjugates; also recorded: multiple products”. The “reaction half-life (t1/2)” value in data set [2] is 8 ± 0.3 h. The second-order rate constant in data set [2] (37° C.) amounted to 0.00024 M⁻¹ s⁻¹; in [2] (R.T.) it was 0.00015 M⁻¹ s⁻¹. Also, in [5] (indole-3-butyrate vs tyrosine), the “fold lower rate constant than to tyrosine” value is 2 fold. Moreover, in data set [5] (indole-3-butyrate, 37° C.), the “second order rate constant (k2)” value came out at 0.00011 M⁻¹ s⁻¹. Moreover, in [6] (10 mM imine 1, 1 mM 1H-pyrrole-1-propionate), the “second order rate constant” value came to 0.059 M⁻¹ s⁻¹. Moreover, the “increase in rate constant relative to Tyr” value in data set [6] (1H-pyrrole-1-propionate vs Tyr) is recorded as ~ 200 fold. For the same molecule, the “conjugate formation with β-mercaptoethanol” value in [7] is on record as “Stable conjugates”. The “combined yield of mono-labeled and di-labeled angiotensin II” value with angiotensin II is ~ 45%. Further, in [8], the “effect of cysteine on tyrosine-imine reaction rate” value was “slightly slowed the reaction rate”. For the same molecule, in data set [9], the “number of additions of the imine” value is “two to three”. Further, the “conjugate formation with N-ethyl pyrrole” value in [10] was “Stable conjugates”.

With `Cc1c[nH]c2ccccc12` [3-methyl indole], the aqueous solubility entry in the data set “Aqueous solubility” is “poor aqueous solubility”.

`C1=NCCc2ccccc21` [Compound 9]: the reactivity to tyrosine result in data set [2] is reported as “limited”.
